Assay [1] concerns the target P70S6K (T412E mutant, Millipore) (Homo sapiens (Human), UniProt P23443, T412E). The assay is described as follows: P70S6K enzyme assay. It counts as biochemical. Conditions: 24 μM ATP, 90 min at 25° C. On the procedure:
P70S6K inhibitor compounds were diluted and plated in 96 well plates. A reaction mixture including the following components was then added to the compound plate to initiate the enzyme reaction; P70S6K (3 nM, T412E mutant, Millipore) was mixed with 24 μM ATP in an assay buffer containing 100 mM Hepes (pH 7.5), 5 mM MgCl2, 1 mM DTT, 0.015% Brij and 1 μM of the substrate peptide FITC-AHA-AKRRRLSSLRA-OH (derived from the S6 ribosomal protein sequence, FITC=fluorescein isothiocyanate, AHA=6-aminohexanoic acid). The reaction was incubated for 90 min at 25° C., before the addition of 10 mM EDTA to stop the reaction. The proportion of substrate and product (phosphorylated) peptide was analysed on a Caliper Life Sciences Lab Chip 3000, using a pressure of −1.4 psi, and upstream and downstream voltages of −3000 and −700 respectively. Product peaks were resolved before substrate peaks on the resulting chromatograms.

The target of the next assay is His-AKT (Full Length) (Homo sapiens (Human), UniProt P31749). As to the kind of experiment: AKT enzyme assay. It counts as biochemical. Conditions: 160 uM ATP, 90 min at 25° C. On the procedure: A TTP Mosquito liquid handling instrument was used to place 125 nl of the appropriate concentration of inhibitor in 100% DMSO (for a dose response curve calculation) into each well of a 384-well plate. To this reaction components were added to a final volume of 12.5 μl: • 0.1 ng/μl His-AKT (Full Length), (Invitrogen, Part # P2999, Lot #641228C). • 160 uM ATP (Fluka, 02055) • 1 mM DTT (Sigma, D0632) • 1 mM MgCl2 (Sigma, M1028) • 1 μM substrate peptide (sequence FITC-AHA-GRPRTSSFAEG-NH2), • synthesized by Tufts Peptide Synthesis service. • 100 mM HEPES pH 7.5 (Calbiochem, 391338) • 0.015% Brij-35 (Sigma, B4184)
Sequence of His-AKT (Full Length) (P31749 whole entry): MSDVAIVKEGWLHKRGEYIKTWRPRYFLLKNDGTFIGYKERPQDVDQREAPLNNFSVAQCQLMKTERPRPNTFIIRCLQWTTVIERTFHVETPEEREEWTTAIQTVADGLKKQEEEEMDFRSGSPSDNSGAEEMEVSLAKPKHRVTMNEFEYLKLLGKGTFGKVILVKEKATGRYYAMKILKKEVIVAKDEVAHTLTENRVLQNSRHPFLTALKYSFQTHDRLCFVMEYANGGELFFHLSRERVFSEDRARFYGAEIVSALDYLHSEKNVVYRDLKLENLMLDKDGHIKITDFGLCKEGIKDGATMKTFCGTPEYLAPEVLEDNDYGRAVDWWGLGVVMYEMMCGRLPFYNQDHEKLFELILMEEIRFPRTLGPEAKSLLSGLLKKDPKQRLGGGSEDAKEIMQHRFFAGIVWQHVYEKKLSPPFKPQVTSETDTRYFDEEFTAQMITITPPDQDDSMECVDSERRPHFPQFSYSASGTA
The reaction was incubated for 90 min at 25° C., and then stopped by the addition of 70 μl of Stop buffer (100 mM HEPES pH 7.5, 0.015% Brij-35, 10 mM EDTA (Sigma, E7889)).
The plate was read on a Caliper LC 3000 in an Off-Chip mobility shift assay format, using the following parameters for a 12-sipper chip: screening pressure −2.3 psi, upstream voltage −500, and downstream voltage −3000. These conditions caused unphosphorylated substrate and phosphorylated product peptide to resolve as separate peaks allowing direct measurement of percentage of conversion of substrate to product. The percent conversion was plotted against concentration of inhibitor to produce a sigmoidal dose response curve, from which an IC50 was calculated.

As usually defined, the IC50 is the point on the concentration scale where inhibition reaches its midpoint.

Each structure is given as a SMILES string.

Sequence of P70S6K (T412E mutant, Millipore) (P23443 whole entry T412E): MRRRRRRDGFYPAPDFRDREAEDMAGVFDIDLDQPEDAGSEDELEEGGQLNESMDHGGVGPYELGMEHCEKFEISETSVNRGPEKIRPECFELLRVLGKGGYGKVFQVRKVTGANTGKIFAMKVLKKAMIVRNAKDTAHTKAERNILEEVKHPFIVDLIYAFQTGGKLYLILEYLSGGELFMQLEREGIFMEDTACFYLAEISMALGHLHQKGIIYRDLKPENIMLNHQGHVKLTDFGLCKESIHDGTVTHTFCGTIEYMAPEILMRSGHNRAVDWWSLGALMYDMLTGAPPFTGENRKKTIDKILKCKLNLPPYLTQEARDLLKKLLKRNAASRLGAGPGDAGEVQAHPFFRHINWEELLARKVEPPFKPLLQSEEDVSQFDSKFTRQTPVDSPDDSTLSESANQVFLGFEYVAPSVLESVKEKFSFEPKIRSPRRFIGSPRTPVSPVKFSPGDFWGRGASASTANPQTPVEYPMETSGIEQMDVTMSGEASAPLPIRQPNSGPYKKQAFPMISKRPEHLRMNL

Turning to `NCC(c1ccc(C(F)(F)F)cc1)C1CCN(c2ccnc3c2CCCN3)CC1` (centres unmarked) [Compound A1, 2-(1-(5,6,7,8-tetrahydro-1,8-naphthyridin-4-yl)piperidin-4-yl)-2-(4-(trifluoromethyl)phenyl)ethanamine], the IC50 in assay [1] fell in the range of 25 to 100 nM; on His-AKT (Full Length) it was 101 to 500 nM.
On to `NCC(c1ccc(C(F)(F)F)cc1)C1CCN(c2ccnc3c2CCN3)CC1` (centres unmarked) [Compound A2, 2-(1-(2,3-dihydro-1H-pyrrolo[2,3-b]pyridin-4-yl)piperidin-4-yl)-2-(4-(trifluoro-methyl)phenyl)ethanamine], for which the IC50 (in assay [1]; against His-AKT (Full Length)) was 25 to 100 nM throughout.
On to `NCC(c1ccc(C(F)(F)F)cc1)C1CCN(c2ccnc3c2CCC3)CC1` (centres unmarked) [Compound A3, 2-(1-(6,7-dihydro-5H-cyclopenta[b]pyridin-4-yl)piperidin-4-yl)-2-(4-(trifluoromethyl)phenyl)ethanamine], for which the IC50 (in assay [1]; at His-AKT (Full Length)) was more than 1000 nM throughout.
In the case of `CN(C)CC(c1ccc(Cl)cc1)N1CCN(c2ncnc3c2OCCN3)CC1` (centres unmarked) [Compound A4, {2-(4-Chlorophenyl)-2-[4-(7,8-dihydro-6H-pyrimido[5,4-b][1,4]oxazin-4-yl)-piperazin-1-yl]-ethyl}-dimethylamine], the IC50 in assay [1] was more than 1000 nM; on His-AKT (Full Length) it was 101 to 500 nM.
Regarding `CN(C)CC(c1ccc(C(F)(F)F)cc1)N1CCN(c2ncnc3c2OCCN3)CC1` (centres unmarked) [Compound A5, [2-[4-(7,8-Dihydro-6H-pyrimido[5,4-b][1,4]oxazin-4-yl)-piperazin-1-yl]-2-(4-trifluoromethylphenyl)-ethyl]-dimethylamine], the IC50 in assay [1] is more than 1000 nM; against His-AKT (Full Length), 101 to 500 nM.
In the same order, the values of `CN(C)CC(c1ccc(C(F)(F)F)cc1)N1CCN(c2ncnc3c2CCN3)CC1` (centres unmarked) [Compound A6, [2-[4-(6,7-Dihydro-5H-pyrrolo[2,3-d]pyrimidin-4-yl)-piperazin-1-yl]-2-(4-trifluoromethylphenyl)-ethyl]-dimethylamine] are 101 to 500 nM and 101 to 500 nM.
For `CN(C)CC(c1ccc(Cl)cc1)N1CCN(c2ncnc3c2CCN3)CC1` (centres unmarked) [Compound A7, {2-(4-Chlorophenyl)-2-[4-(6,7-dihydro-5H-pyrrolo[2,3-d]pyrimidin-4-yl)-piperazin-1-yl]-ethyl}-dimethylamine] the same measures were 101 to 500 nM and 101 to 500 nM.
For `CN(C)CC(c1ccc(Cl)cc1)N1CCN(c2ncnc3c2CCCN3)CC1` (centres unmarked) [Compound A8, {2-(4-Chlorophenyl)-2-[4-(5,6,7,8-tetrahydro-pyrido[2,3-d]pyrimidin-4-yl)-piperazin-1-yl]-ethyl}-dimethylamine] the same measures were 101 to 500 nM and 25 to 100 nM.
With `CN(C)CC(c1ccc(C(F)(F)F)cc1)N1CCN(c2ncnc3c2CCCN3)CC1` (centres unmarked) [Compound A9, Dimethyl-[2-[4-(5,6,7,8-tetrahydro-pyrido[2,3-d]pyrimidin-4-yl)-piperazin-1-yl]-2-(4-trifluoromethyl-phenyl)-ethyl]-amine], the IC50 (in assay [1]; on His-AKT (Full Length)) was 25 to 100 nM throughout.
For the compound `NCC(c1ccc(C(F)(F)F)cc1)N1CCN(c2ncnc3c2OCCN3)CC1` (centres unmarked) [Compound A10, 2-[4-(7,8-Dihydro-6H-pyrimido[5,4-b][1,4]oxazin-4-yl)-piperazin-1-yl]-2-(4-trifluoromethylphenyl)-ethylamine], the values for the IC50 (in assay [1]; on His-AKT (Full Length)) were 501 to 1000 nM and 101 to 500 nM, respectively.
In the same order, the values of `NCC(c1ccc(Cl)cc1)N1CCN(c2ncnc3c2OCCN3)CC1` (centres unmarked) [Compound A11, 2-(4-Chlorophenyl)-2-[4-(7,8-dihydro-6H-pyrimido[5,4-b][1,4]oxazin-4-yl)-piperazin-1-yl]-ethylamine] are 501 to 1000 nM and 101 to 500 nM.
In the same order, the values of `CN(C)CC(c1ccc(C(F)(F)F)c(F)c1)N1CCN(c2ncnc3c2OCCN3)CC1` (centres unmarked) [Compound A12, [2-[4-(7,8-Dihydro-6H-pyrimido[5,4-b][1,4]oxazin-4-yl)-piperazin-1-yl]-2-(3-fluoro-4-trifluoromethylphenyl)-ethyl]-dimethylamine] are 501 to 1000 nM and 101 to 500 nM.
In the same order, the values of `NCC(c1ccc(Cl)cc1)N1CCN(c2ncnc3c2CCN3)CC1` (centres unmarked) [Compound A13, 2-(4-Chloro-phenyl)-2-[4-(6,7-dihydro-5H-pyrrolo[2,3-d]pyrimidin-4-yl)-piperazin-1-yl]-ethylamine] are 25 to 100 nM and 101 to 500 nM.
In the case of `NCC(c1ccc(F)cc1)N1CCN(c2ncnc3c2CCN3)CC1` (centres unmarked) [Compound A14, 2-[4-(6,7-Dihydro-5H-pyrrolo[2,3-d]pyrimidin-4-yl)-piperazin-1-yl]-2-(4-fluorophenyl)-ethylamine], the IC50 (in assay [1]; against His-AKT (Full Length)) was 501 to 1000 nM throughout.
As for `CN(C)CC(c1ccc(Cl)c(F)c1)N1CCN(c2ncnc3c2CCN3)CC1` (centres unmarked) [Compound A15, {2-(4-Chloro-3-fluoro-phenyl)-2-[4-(6,7-dihydro-5H-pyrrolo[2,3-d]pyrimidin-4-yl)-piperazin-1-yl]ethyl}-dimethylamine], the IC50 (in assay [1]; against His-AKT (Full Length)) was 101 to 500 nM throughout.
On to `NCC(c1ccc(C(F)(F)F)cc1)N1CCN(c2ncnc3c2CCCN3)CC1` (centres unmarked) [Compound A16, 2-[4-(5,6,7,8-Tetrahydro-pyrido[2,3-d]pyrimidin-4-yl)-piperazin-1-yl]-2-(4-trifluoromethyl-phenyl)-ethylamine], for which the IC50 (in assay [1]; against His-AKT (Full Length)) was 25 to 100 nM in each case.
For the compound `NCC(c1ccc(Cl)cc1)N1CCN(c2ncnc3c2CCCN3)CC1` (centres unmarked) [Compound A17, 2-(4-Chloro-phenyl)-2-[4-(5,6,7,8-tetrahydro-pyrido[2,3-d]pyrimidin-4-yl)-piperazin-1-yl]-ethylamine], the IC50 in assay [1] is 101 to 500 nM; against His-AKT (Full Length), 25 to 100 nM.
`CN(C)CC(c1ccc(Cl)c(F)c1)N1CCN(c2ncnc3c2CCCN3)CC1` (centres unmarked) [Compound A18, {2-(4-Chloro-3-fluoro-phenyl)-2-[4-(5,6,7,8-tetrahydro-pyrido[2,3-d]pyrimidin-4-yl)-piperazin-1-yl]-ethyl}-dimethylamine]: the IC50 in assay [1] fell in the range of 101 to 500 nM; against His-AKT (Full Length), 25 to 100 nM.
In the same order, the values of `CN(C)CC(c1ccc(C(F)(F)F)c(F)c1)N1CCN(c2ncnc3c2CCCN3)CC1` (centres unmarked) [Compound A19, {2-(3-Fluoro-4-trifluoromethyl-phenyl)-2-[4-(5,6,7,8-tetrahydro-pyrido[2,3-d]pyrimidin-4-yl)-piperazin-1-yl]-ethyl}-dimethylamine] are 25 to 100 nM and 25 to 100 nM.
In the same order, the values of `CN(C)CC(c1ccc(C(F)(F)F)c(F)c1)N1CCN(c2ncnc3c2CCN3)CC1` (centres unmarked) [Compound A20, [2-[4-(6,7-Dihydro-5H-pyrrolo[2,3-d]pyrimidin-4-yl)-piperazin-1-yl]-2-(3-fluoro-4-trifluoromethyl-phenyl)-ethyl]-dimethylamine] are 101 to 500 nM and 25 to 100 nM.
In the same order, the values of `NCC(c1ccc(F)cc1)N1CCN(c2ncnc3c2CCCN3)CC1` (centres unmarked) [Compound A21, 2-(4-Fluoro-phenyl)-2-[4-(5,6,7,8-tetrahydro-pyrido[2,3-d]pyrimidin-4-yl)-piperazin-1-yl]-ethylamine] are more than 1000 nM and 501 to 1000 nM.
Turning to `NCC(c1ccc(C(F)(F)F)cc1)C1CCN(c2ncnc3c2CCCN3)CC1` (centres unmarked) [Compound A22, 2-[1-(5,6,7,8-Tetrahydro-pyrido[2,3-d]pyrimidin-4-yl)-piperidin-4-yl]-2-(4-trifluoromethyl-phenyl)-ethylamine], the IC50 lay within 101 to 500 nM in assay [1] and 25 to 100 nM at His-AKT (Full Length).
In the same order, the values of `NCC(c1ccc(C(F)(F)F)cc1)C1CCN(c2ncnc3c2OCCN3)CC1` (centres unmarked) [Compound A23, 2-[1-(7,8-Dihydro-6H-pyrimido[5,4-b][1,4]oxazin-4-yl)-piperidin-4-yl]-2-(4-trifluoromethyl-phenyl)-ethylamine] are more than 1000 nM and more than 1000 nM.
In the same order, the values of `CN(C)CC(c1ccc(F)cc1)N1CCN(c2ncnc3c2NC(=O)CN3)CC1` (centres unmarked) [Compound A24, 4-{4-[2-dimethylamino-1-(4-fluoro-phenyl)-ethyl]-piperazin-1-yl}-7,8-dihydro-5H-pteridin-6-one] are more than 1000 nM and more than 1000 nM.
For `CN(C)CC(c1cccc(F)c1)N1CCN(c2ncnc3c2NC(=O)CN3)CC1` (centres unmarked) [Compound A25, 4-{4-[2-dimethylamino-1-(3-fluoro-phenyl)-ethyl]-piperazin-1-yl}-7,8-dihydro-5H-pteridin-6-one] the same measures were more than 1000 nM and more than 1000 nM.

These data come from patent US10287300B2 (Merck Patent GmbH, priority 2012, dated 2019).
